The target of one data set is Cathepsin D (Homo sapiens, UniProt P07339). Put plainly: Inhibition of CathD (unknown origin).
A short description of data set [1]: AUC (0 to 6 hrs) in rat at 10 mg/kg, po. Particulars: plasma. Set-up: time < 6 hr, dose 10 mg/kg, route oral. Format: ADME, organism-based.
In the next data set the target is Beta-secretase 1 (Homo sapiens, UniProt P56817). Put plainly: Inhibition of BACE1 (unknown origin).
Another data set concerns the target T1, Renin (Homo sapiens, UniProt P00797).
T1 sequence (P00797 whole entry): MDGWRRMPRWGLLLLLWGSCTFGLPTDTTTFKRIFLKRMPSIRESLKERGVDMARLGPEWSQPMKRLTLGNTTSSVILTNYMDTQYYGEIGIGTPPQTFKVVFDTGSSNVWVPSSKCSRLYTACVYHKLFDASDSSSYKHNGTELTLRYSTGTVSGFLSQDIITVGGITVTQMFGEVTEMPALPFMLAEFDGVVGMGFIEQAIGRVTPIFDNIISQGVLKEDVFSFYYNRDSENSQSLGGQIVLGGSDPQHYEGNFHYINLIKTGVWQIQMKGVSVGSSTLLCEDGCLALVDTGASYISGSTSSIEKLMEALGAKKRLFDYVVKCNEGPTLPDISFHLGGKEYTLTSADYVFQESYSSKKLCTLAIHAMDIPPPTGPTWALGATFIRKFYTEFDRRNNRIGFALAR
Put plainly: Inhibition of renin (unknown origin).

The species named for data set [2] is Homo sapiens. Put plainly: Clearance in human assessed per million cells. Format: ADME, cell-based.
Data set [3] can be described thus: Permeability across human Caco2 cells. Format: ADME, cell-based. Particulars: Caco-2, read-out: permeability. Background: Caco-2 monolayers are a common model of the intestinal barrier.
Another data set addresses hERG (KCNH2) (Homo sapiens, UniProt Q12809). Put plainly: Inhibition of human ERG at 10 uM.
A further data set can be described thus: clinical. The following applies: human, in vivo, po.
For data set [4], the system named is Rattus norvegicus. Nature of the data set: Antihypertensive activity in rat/human renin double transgenic rat model assessed as maximum reduction in mean arterial pressure at 10 mg/kg, po. The format is functional, Artery.
Data set [5] is described as follows: Protein binding in rat plasma. The format is ADME, cell-free. The following applies: read-out: PPB (converted).
The target in data set [6] is D(1A) dopamine receptor (Homo sapiens) (UniProt P21728). Put plainly: Inhibition of human D1 receptor at 10 uM.
Data set [7] has as its system Rattus norvegicus. Put plainly: Antihypertensive activity in rat/human renin double transgenic rat model assessed as reduction in mean arterial pressure at 10 mg/kg, po after 20 hrs. Set-up: dose 10 mg/kg. Format: functional, organism-based. Particulars: Artery.
Data set [8] has as its target T2, Nuclear receptor subfamily 1 group I member 2 (Homo sapiens, UniProt O75469).
T2 sequence (O75469 whole entry): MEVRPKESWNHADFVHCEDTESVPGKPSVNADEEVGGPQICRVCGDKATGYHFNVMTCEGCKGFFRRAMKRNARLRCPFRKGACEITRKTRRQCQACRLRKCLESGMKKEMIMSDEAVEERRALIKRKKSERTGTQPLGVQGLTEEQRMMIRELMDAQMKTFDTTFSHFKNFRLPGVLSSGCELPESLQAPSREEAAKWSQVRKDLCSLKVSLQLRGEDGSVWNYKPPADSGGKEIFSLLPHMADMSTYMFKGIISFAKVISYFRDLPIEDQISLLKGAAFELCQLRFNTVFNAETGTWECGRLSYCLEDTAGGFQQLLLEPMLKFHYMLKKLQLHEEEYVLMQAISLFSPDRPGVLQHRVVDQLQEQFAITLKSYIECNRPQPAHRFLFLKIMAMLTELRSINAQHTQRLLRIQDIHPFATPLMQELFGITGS
Nature of the data set: Inhibition of PXR (unknown origin). Format: ADME.

The nature of data set [9]: AUC in cynomolgus monkey at 3 mg/kg, po. Format: ADME, organism-based, Macaca fascicularis. Set-up: dose 3 mg/kg, route oral. Particulars: plasma.
Data set [10] is described as follows: Oral bioavailability in cynomolgus monkey at 3 mg/kg. Format: ADME, organism-based, Macaca fascicularis. The following applies: in vivo.
The subject of data set [11] is Rattus norvegicus. Nature of the data set: Antihypertensive activity in rat/human renin double transgenic rat model assessed as reduction in mean arterial pressure at 10 mg/kg, po after 17 hrs. The format is functional, organism-based. Set-up: dose 10 mg/kg. The following applies: Artery.
Data set [12] concerns the target Voltage-gated inwardly rectifying potassium channel KCNH2 (Homo sapiens, UniProt Q12809). Put plainly: Inhibition of human ERG by voltage clamp method.
The nature of data set [13]: Fraction unbound in rat plasma. Format: ADME, cell-free.
For data set [14], the species on record is Homo sapiens. Nature of the data set: Inhibition of Na+ channel site 2 (unknown origin) at 10 uM.
Data set [15] in a line: Protein binding in human plasma. The format is ADME, cell-free. Particulars: read-out: PPB (converted).
Data set [16] in a line: AUC in dog at 3 mg/kg, po. Format: ADME, organism-based, Canis lupus familiaris. Set-up: dose 3 mg/kg, route oral. The following applies: plasma.
A further data set concerns the target T3, Cathepsin E (Homo sapiens, UniProt P14091).
T3 sequence (P14091 whole entry): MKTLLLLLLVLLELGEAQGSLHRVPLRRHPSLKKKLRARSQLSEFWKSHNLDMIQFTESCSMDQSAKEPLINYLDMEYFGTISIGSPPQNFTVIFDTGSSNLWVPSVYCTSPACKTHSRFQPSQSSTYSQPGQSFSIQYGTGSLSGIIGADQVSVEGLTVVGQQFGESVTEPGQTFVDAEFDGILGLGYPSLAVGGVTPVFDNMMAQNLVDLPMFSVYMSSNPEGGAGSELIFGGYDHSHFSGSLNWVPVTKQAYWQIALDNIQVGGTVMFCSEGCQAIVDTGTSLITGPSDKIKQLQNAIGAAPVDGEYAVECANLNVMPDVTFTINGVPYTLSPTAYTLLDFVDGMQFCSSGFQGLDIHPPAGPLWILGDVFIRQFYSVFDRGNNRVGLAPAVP
Put plainly: Inhibition of CathE (unknown origin).

Data set [17] in a line: Oral bioavailability in dog at 3 mg/kg. Format: ADME, organism-based, Canis lupus familiaris. The following applies: in vivo.
Data set [18] in a line: Inhibition of pepsin (unknown origin). Also noted: species or system Homo sapiens.
The target in another data set is T4, Beta-secretase 2 (Homo sapiens, UniProt Q9Y5Z0).
T4 sequence (Q9Y5Z0 whole entry): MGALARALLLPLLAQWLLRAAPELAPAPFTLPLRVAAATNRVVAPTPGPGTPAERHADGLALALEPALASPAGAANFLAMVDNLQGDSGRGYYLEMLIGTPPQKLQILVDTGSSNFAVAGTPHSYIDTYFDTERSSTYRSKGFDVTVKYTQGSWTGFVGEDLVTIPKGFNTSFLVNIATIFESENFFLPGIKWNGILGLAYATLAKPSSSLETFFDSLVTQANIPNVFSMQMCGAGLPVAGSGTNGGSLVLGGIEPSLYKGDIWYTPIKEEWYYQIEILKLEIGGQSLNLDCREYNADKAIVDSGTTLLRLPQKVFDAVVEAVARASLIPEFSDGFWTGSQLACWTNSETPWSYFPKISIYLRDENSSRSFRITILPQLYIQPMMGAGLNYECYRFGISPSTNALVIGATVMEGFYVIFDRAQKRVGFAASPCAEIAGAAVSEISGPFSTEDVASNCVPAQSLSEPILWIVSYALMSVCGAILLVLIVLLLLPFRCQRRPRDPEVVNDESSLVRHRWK
Put plainly: Inhibition of BACE2 (unknown origin).

Data set [19] addresses Sodium-dependent dopamine transporter (Homo sapiens) (UniProt Q01959). Nature of the data set: Inhibition of human dopamine transporter at 10 uM.
Data set [20] in a line: Inhibition of CYP (unknown origin). The format is ADME. Particulars: human.

Molecules are shown by their SMILES. The source made the active and inactive calls. No cut-off for these calls is given here.

Cathepsin D, sequence (P07339 65-162 limits assumed): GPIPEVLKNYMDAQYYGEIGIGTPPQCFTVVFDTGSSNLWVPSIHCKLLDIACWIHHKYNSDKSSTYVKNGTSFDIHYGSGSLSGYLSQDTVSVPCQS
Cathepsin D, sequence (P07339 169-412 limits assumed): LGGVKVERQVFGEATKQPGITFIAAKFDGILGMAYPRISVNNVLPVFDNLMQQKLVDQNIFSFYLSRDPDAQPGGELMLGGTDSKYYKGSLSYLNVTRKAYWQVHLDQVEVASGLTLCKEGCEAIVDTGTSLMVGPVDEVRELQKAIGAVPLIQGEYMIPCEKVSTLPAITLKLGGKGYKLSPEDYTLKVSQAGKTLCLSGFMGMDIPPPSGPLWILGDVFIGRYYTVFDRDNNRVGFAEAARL
hERG (KCNH2), sequence (Q12809 whole entry): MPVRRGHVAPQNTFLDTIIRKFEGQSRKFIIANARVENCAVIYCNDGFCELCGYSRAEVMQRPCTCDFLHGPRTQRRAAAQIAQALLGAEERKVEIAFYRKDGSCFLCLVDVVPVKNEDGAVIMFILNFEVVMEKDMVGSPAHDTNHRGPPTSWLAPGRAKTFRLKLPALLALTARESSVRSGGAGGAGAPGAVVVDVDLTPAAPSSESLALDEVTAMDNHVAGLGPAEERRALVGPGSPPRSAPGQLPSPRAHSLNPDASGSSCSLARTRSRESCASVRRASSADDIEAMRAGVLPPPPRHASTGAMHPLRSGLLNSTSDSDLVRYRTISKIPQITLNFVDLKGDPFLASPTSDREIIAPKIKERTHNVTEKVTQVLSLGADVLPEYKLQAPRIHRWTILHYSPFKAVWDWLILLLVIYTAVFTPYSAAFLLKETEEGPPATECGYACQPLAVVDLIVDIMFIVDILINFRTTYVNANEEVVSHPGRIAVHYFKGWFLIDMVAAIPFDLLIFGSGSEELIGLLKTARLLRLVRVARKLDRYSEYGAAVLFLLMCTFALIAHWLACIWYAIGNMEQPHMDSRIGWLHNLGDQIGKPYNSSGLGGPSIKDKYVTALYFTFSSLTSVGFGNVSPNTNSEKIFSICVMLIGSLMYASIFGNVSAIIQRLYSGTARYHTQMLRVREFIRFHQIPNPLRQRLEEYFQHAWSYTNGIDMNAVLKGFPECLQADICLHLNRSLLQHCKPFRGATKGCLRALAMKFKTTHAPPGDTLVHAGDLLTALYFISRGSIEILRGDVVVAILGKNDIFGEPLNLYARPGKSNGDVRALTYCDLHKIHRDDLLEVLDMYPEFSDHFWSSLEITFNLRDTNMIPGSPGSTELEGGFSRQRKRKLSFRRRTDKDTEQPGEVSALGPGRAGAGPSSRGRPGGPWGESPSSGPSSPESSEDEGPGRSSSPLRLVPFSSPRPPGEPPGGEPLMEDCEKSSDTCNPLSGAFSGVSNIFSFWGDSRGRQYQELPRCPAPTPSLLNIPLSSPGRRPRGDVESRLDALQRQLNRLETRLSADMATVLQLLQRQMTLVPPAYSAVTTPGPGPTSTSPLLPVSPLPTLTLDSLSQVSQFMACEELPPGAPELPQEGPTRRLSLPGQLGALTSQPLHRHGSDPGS
Beta-secretase 1, sequence (P56817 whole entry): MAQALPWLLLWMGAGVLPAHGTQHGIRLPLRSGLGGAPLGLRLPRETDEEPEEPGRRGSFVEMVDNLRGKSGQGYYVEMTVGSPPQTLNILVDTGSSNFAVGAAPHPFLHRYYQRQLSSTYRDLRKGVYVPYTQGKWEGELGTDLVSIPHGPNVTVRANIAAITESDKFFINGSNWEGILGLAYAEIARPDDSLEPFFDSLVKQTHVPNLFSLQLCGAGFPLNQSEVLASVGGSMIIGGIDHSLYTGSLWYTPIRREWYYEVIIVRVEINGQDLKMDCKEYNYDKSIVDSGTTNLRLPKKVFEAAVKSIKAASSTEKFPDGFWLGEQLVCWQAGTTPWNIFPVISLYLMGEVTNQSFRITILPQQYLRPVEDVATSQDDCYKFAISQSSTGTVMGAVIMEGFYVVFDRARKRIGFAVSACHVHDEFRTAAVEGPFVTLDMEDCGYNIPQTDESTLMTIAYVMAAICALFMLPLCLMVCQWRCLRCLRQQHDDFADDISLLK
D(1A) dopamine receptor (Homo sapiens), sequence (P21728 whole entry): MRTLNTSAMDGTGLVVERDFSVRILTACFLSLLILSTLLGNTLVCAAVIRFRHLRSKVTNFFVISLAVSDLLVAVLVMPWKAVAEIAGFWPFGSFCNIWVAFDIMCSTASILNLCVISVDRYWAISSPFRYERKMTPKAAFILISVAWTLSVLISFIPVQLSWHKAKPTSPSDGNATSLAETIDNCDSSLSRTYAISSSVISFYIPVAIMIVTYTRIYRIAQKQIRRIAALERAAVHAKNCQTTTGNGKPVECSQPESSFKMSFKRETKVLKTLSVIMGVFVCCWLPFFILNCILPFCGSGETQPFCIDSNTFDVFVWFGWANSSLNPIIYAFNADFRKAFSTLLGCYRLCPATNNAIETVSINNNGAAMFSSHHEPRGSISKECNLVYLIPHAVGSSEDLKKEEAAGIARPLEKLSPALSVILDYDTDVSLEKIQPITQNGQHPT
Voltage-gated inwardly rectifying potassium channel KCNH2, sequence (Q12809 whole entry): as the sequence (Q12809 whole entry) above
Sodium-dependent dopamine transporter (Homo sapiens), sequence (Q01959 whole entry): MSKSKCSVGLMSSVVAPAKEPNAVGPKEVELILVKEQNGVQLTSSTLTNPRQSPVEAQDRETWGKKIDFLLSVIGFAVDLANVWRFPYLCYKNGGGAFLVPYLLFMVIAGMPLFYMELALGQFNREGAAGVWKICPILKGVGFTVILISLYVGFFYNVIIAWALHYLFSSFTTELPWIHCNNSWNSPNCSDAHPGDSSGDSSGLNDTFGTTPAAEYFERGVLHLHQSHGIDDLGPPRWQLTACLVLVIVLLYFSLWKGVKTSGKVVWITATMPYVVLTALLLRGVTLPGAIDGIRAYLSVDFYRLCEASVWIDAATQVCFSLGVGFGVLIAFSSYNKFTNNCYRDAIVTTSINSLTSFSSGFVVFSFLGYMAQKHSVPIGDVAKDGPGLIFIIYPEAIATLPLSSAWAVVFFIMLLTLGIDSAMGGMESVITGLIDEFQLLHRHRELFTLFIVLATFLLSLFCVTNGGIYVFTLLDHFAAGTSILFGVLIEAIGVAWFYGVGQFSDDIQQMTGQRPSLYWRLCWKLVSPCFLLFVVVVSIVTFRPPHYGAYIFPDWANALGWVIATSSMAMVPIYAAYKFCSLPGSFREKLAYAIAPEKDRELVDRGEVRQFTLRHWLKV

Turning to `CC(C)[C@]1(C)CC(=O)N(Cc2cccc(C(=O)NCc3ccccc3)c2)C(=N)N1`, the Ki (commonly a dissociation constant, usually derived from enzyme kinetics or from competition with a known ligand) on Cathepsin D was 2700 nM; on Beta-secretase 1, more than 10000 nM; at Renin it was 56 nM. Further, the AUC(0-t) (commonly exposure summed from dosing to a finite time, without extrapolation to infinity) at 6 h in data set [1] stood at 0.031 µM·h. Further, the CL in the data set filed under Homo sapiens [2] stood at 3.7 µL/min. Further, in data set [3], the Papp worked out at 0.09 ×10⁻⁶ cm/s.
Regarding `CC(C)[C@]1(C)CC(=O)N(Cc2cccc(N3CC(c4cccc(Cl)c4)CC3=O)c2)C(=N)N1` (stereo partly drawn), the affinity on Renin corresponds to a Ki of 2 nM. Testing at 10 µM against hERG (KCNH2) gave an inhibition of 92%.
As for `CC(C)[C@]1(C)CC(=O)N(Cc2cc(F)cc(N3C[C@@H](c4ccccc4)CC3=O)c2)C(=N)N1`, in data set [1], the AUC(0-t) at 6 h is 2.25 µM·h. Also, on Renin, the Ki was found to be 19 nM. The compound further returned a CL in the data set listed under Homo sapiens [2] of 7.6 µL/min. In addition, the inhibition (usually the share of the control response that was lost under treatment) at 10 µM on hERG (KCNH2) turned out to be 85%. The Papp in data set [3] is 6.7 ×10⁻⁶ cm/s.
Regarding `CC(C)[C@]1(C)CC(=O)N(Cc2cccc(N3C[C@@H](c4ccccc4)CC3=O)c2)C(=N)N1`, in data set [1], the AUC(0-t) at 6 h stood at 2.04 µM·h. This compound also had a Ki on Renin of 44 nM. The Papp in data set [3] amounted to 4.2 ×10⁻⁶ cm/s.
Regarding `C[C@@]1(c2ccc3sccc3c2)CC(=O)N(Cc2cccc(C(=O)NCc3ccccc3)c2)C(=N)N1`, the Ki is 19500 nM on Cathepsin D, 3820 nM at Beta-secretase 1 and 82 nM at Renin. This compound also registered an AUC(0-t) at 6 h in [1] of 0.049 µM·h.
`CC(C)[C@]1(C)CC(=O)N(Cc2cccc(N3C[C@H](c4ccccc4)CC3=O)c2)C(=N)N1` returned a Ki at Renin of 420 nM.
`CC(C)[C@]1(C)CC(=O)N(Cc2cccc(C(=O)N[C@H](C)c3ccccc3)c2)C(=N)N1` yielded an AUC(0-t) at 6 h in data set [1] of 0.173 µM·h. Moreover, the affinity on Renin corresponds to a Ki of 86 nM.
In data set [1], `CC(C)[C@]1(C)CC(=O)N(Cc2cccc(C(=O)N[C@@H](C)c3ccccc3)c2)C(=N)N1` had an AUC(0-t) at 6 h of 0.405 µM·h. The Ki on Renin worked out at 2.2 nM.
`COCCCOc1cc(C[C@@H](C[C@H](N)[C@@H](O)C[C@H](C(=O)NCC(C)(C)C(N)=O)C(C)C)C(C)C)ccc1OC`: the bioavailability (commonly dose-corrected exposure relative to a reference, in per cent) in the data set “clinical” came to 2.5%. Besides, the Activity in the data set on Rattus norvegicus [4] was found to be 43 mmHg.
With `CN[C@H](CNC(=O)N1CCC[C@@H]([C@@H](OCCNC(=O)OC)c2cccc(Cl)c2)C1)C[C@H]1CCCOC1` [VTP-27999], at Renin, inhibition was half-maximal at 0.5 nM (IC50).
As for `CC(C)[C@]1(C)CC(=O)N(Cc2ccnc(N3CC[C@H](c4ccccc4)C3)c2)C(=N)N1`, in [1], the AUC(0-t) at 6 h came to 0.595 µM·h. For the same compound, affinity on Renin was put at a Ki of 15 nM. On hERG (KCNH2), this compound returned an inhibition at 10 µM of 72%.
As to `CC(C)[C@]1(C)CC(=O)N(Cc2cc(F)cc(C(=O)N[C@@H](C)c3ccccc3)c2)C(=N)N1`, the Ki was 180 nM on Cathepsin D; more than 10000 nM at Beta-secretase 1; 0.6 nM at Renin; 1100 nM on Cathepsin E; more than 10000 nM in [18]; 480 nM on Beta-secretase 2. The AUC(0-t) at 6 h in [1] amounted to 6.52 µM·h. Besides, the fraction unbound in data set [5] is 0.059; in data set [13], 0.059; in data set [15] it was 0.058. The inhibition is 64% in [6], 79% in the data set filed under Homo sapiens [14] and 51% in data set [19]. The outcome in the data set on Rattus norvegicus [7] and with Rattus norvegicus [11] was Active. For the same compound, the INH in data set [8] and in data set [20] was more than 30 µM each time. The AUC – broadly, the area under the concentration-time curve, a measure of exposure – is 1 µM·h in data set [9] and 3 µM·h in [16]. In addition, the bioavailability in data set [10] was 9%; in data set [17], 38%. Further, in data set [12], the IC50 (commonly the midpoint of a concentration-inhibition curve) is 9000 nM. The same compound returned a CL in the data set filed under Homo sapiens [2] of 4 µL/min. Also, the Activity in the data set with Rattus norvegicus [4] is 66 mmHg.
Turning to `CC(C)[C@]1(C)CC(=O)N(Cc2ccnc(N3C[C@@H](c4ccccc4)CC3=O)c2)C(=N)N1`, the AUC(0-t) at 6 h in data set [1] was determined as 2.44 µM·h. The compound also registered a Ki at Renin of 6 nM. Further, 10 µM produced 77% inhibition at hERG (KCNH2).

The values are drawn from ChEMBL document CHEMBL3400110, “Iminopyrimidinones: a novel pharmacophore for the development of orally active renin inhibitors” (Bioorg Med Chem Lett, 2015).
